From PubChem BioAssay AID1259407 (Chemical Carcinogenesis Research Information System (CCRIS), 2018)
Activity calls are given as the source filed them. No rule for the calls is given here.

Tested on: CCRIS mutagenicity, Ames/micronucleus/aberration tests
Assay: CCRIS mutagenicity studies
[1] = Test System: AMES SALMONELLA TYPHIMURIUM, Strain/Indicator: TA98, Metabolic Activation: NONE, Method: STANDARD PLATE
[2] = Test System: AMES SALMONELLA TYPHIMURIUM, Strain/Indicator: TA98, Metabolic Activation: RAT, LIVER, S-9, AROCLOR 1254, Method: STANDARD PLATE
[3] = Test System: AMES SALMONELLA TYPHIMURIUM, Strain/Indicator: TA100, Metabolic Activation: NONE, Method: STANDARD PLATE
[4] = Test System: AMES SALMONELLA TYPHIMURIUM, Strain/Indicator: TA100, Metabolic Activation: RAT, LIVER, S-9, AROCLOR 1254, Method: STANDARD PLATE
[5] = Test System: AMES SALMONELLA TYPHIMURIUM, Strain/Indicator: TA1537, Metabolic Activation: NONE, Method: STANDARD PLATE
[6] = Test System: AMES SALMONELLA TYPHIMURIUM, Strain/Indicator: TA97, Metabolic Activation: NONE, Method: STANDARD PLATE
[7] = Test System: AMES SALMONELLA TYPHIMURIUM, Strain/Indicator: TA97, Metabolic Activation: RAT, LIVER, S-9, AROCLOR 1254, Method: STANDARD PLATE
[8] = Test System: AMES SALMONELLA TYPHIMURIUM, Strain/Indicator: TA102, Metabolic Activation: NONE, Method: STANDARD PLATE
[9] = Test System: AMES SALMONELLA TYPHIMURIUM, Strain/Indicator: TA1535, Metabolic Activation: NONE, Method: PREINCUBATION
[10] = Test System: AMES SALMONELLA TYPHIMURIUM, Strain/Indicator: TA1537, Metabolic Activation: NONE, Method: PREINCUBATION

Measured: mutagenic call

CN(C)CCCN1c2ccccc2CCc2ccccc21
inactive: [1] inactive; negative | [2] inactive; negative | [3] inactive; negative | [4] inactive; negative | Test System: AMES SALMONELLA TYPHIMURIUM, Strain/Indicator: TA1535, Metabolic Activation: NONE, Method: STANDARD PLATE inactive; negative | Test System: AMES SALMONELLA TYPHIMURIUM, Strain/Indicator: TA1535, Metabolic Activation: RAT, LIVER, S-9, AROCLOR 1254, Method: STANDARD PLATE inactive; negative | [5] inactive; negative | Test System: AMES SALMONELLA TYPHIMURIUM, Strain/Indicator: TA1537, Metabolic Activation: RAT, LIVER, S-9, AROCLOR 1254, Method: STANDARD PLATE inactive; negative

Cc1ncc([N+](=O)[O-])n1C
active: [6] active; positive | [7] active; positive | [1] active; positive | [2] active; positive | [3] active; positive | [4] active; positive | [8] active; positive | Test System: AMES SALMONELLA TYPHIMURIUM, Strain/Indicator: TA102, Metabolic Activation: RAT, LIVER, S-9, AROCLOR 1254, Method: STANDARD PLATE active; positive

CC(=O)N(OC(=O)c1ccccc1)c1ccc2c(c1)Cc1ccccc1-2
active: [1] active; positive | [2] active; positive

Cc1cc([N+](=O)[O-])c(C)c2c1[nH]c1ccc([N+](=O)[O-])cc12
active: [1] active; positive | Test System: AMES SALMONELLA TYPHIMURIUM, Strain/Indicator: TA98, Metabolic Activation: RAT LIVER S-9, AROCLOR 1254, Method: STANDARD PLATE active; positive | [3] active; positive | Test System: AMES SALMONELLA TYPHIMURIUM, Strain/Indicator: TA100, Metabolic Activation: RAT LIVER S-9, AROCLOR 1254, Method: STANDARD PLATE active; positive | [5] active; positive | Test System: AMES SALMONELLA TYPHIMURIUM, Strain/Indicator: TA1537, Metabolic Activation: RAT LIVER S-9, AROCLOR 1254, Method: STANDARD PLATE active; positive | Test System: AMES SALMONELLA TYPHIMURIUM, Strain/Indicator: TA1977, Metabolic Activation: NONE, Method: STANDARD PLATE active; positive | Test System: AMES SALMONELLA TYPHIMURIUM, Strain/Indicator: TA1977, Metabolic Activation: RAT LIVER S-9, AROCLOR 1254, Method: STANDARD PLATE active; positive

CN1C(=O)[C@]23CC4=CC=C[C@H](O)[C@H]4N2C(=O)[C@@]1(CO)SS3
inactive: [1] inactive; negative | Test System: AMES SALMONELLA TYPHIMURIUM, Strain/Indicator: TA98, Metabolic Activation: RAT LIVER S-9 MIX, Method: STANDARD PLATE inactive; negative | Test System: AMES SALMONELLA TYPHIMURIUM, Strain/Indicator: TA98, Metabolic Activation: S-9, Method: STANDARD PLATE inactive; negative | [3] inactive; negative | Test System: AMES SALMONELLA TYPHIMURIUM, Strain/Indicator: TA100, Metabolic Activation: RAT LIVER S-9 MIX, Method: STANDARD PLATE inactive; negative | Test System: AMES SALMONELLA TYPHIMURIUM, Strain/Indicator: TA100, Metabolic Activation: S-9, Method: STANDARD PLATE inactive; negative | [8] inactive; negative | Test System: AMES SALMONELLA TYPHIMURIUM, Strain/Indicator: TA102, Metabolic Activation: RAT LIVER S-9 MIX, Method: STANDARD PLATE inactive; negative | [5] inactive; negative | Test System: AMES SALMONELLA TYPHIMURIUM, Strain/Indicator: TA1537, Metabolic Activation: S-9, Method: STANDARD PLATE inactive; negative

[O]=[V]([OH])([OH])[OH]
inactive: End Point: IN VIVO MICRONUCLEUS, Test System: POLYCHROMATIC ERYTHROCYTES, Species: MOUSE, Strain/Sex: (102/E1 X C3H/E1)F1/MALE, Route: IP INJECTION inactive; negative

c1ccc2nc3ccccc3cc2c1
active: Test System: AMES SALMONELLA TYPHIMURIUM, Strain/Indicator: TA1537, Metabolic Activation: RAT, LIVER, S-9, TETRACHLOROBIPHENYL, Method: PREINCUBATION active; positive
inactive: [6] inactive; negative | [7] inactive; negative | [1] inactive; negative | [2] inactive; negative | [3] inactive; negative | [4] inactive; negative | [9] inactive; negative | Test System: AMES SALMONELLA TYPHIMURIUM, Strain/Indicator: TA1535, Metabolic Activation: RAT, LIVER, S-9, TETRACHLOROBIPHENYL, Method: PREINCUBATION inactive; negative | [10] inactive; negative | Test System: AMES SALMONELLA TYPHIMURIUM, Strain/Indicator: TA1538, Metabolic Activation: NONE, Method: PREINCUBATION inactive; negative | Test System: AMES SALMONELLA TYPHIMURIUM, Strain/Indicator: TA1538, Metabolic Activation: RAT, LIVER, S-9, TETRACHLOROBIPHENYL, Method: PREINCUBATION inactive; negative

O=C1C=Cc2ccc3c4c(ccc1c24)C(=O)C=C3
inactive: [1] inactive; negative | Test System: AMES SALMONELLA TYPHIMURIUM, Strain/Indicator: TA98, Metabolic Activation: RAT, LIVER, S-9, PCB, Method: STANDARD PLATE inactive; negative | [3] inactive; negative | Test System: AMES SALMONELLA TYPHIMURIUM, Strain/Indicator: TA100, Metabolic Activation: RAT, LIVER, S-9, PCB, Method: STANDARD PLATE inactive; negative
active: [6] active; positive | Test System: AMES SALMONELLA TYPHIMURIUM, Strain/Indicator: TA97, Metabolic Activation: RAT, LIVER, S-9, PCB, Method: STANDARD PLATE active; positive

CC(=O)OCc1ccco1
active: Test System: AMES SALMONELLA TYPHIMURIUM, Strain/Indicator: TA98, Metabolic Activation: RAT, LIVER, S-9, AROCLOR 1254 (10%), Method: PREINCUBATION active; positive | Test System: AMES SALMONELLA TYPHIMURIUM, Strain/Indicator: TA100, Metabolic Activation: NONE, Method: PREINCUBATION active; positive | Test System: AMES SALMONELLA TYPHIMURIUM, Strain/Indicator: TA100, Metabolic Activation: RAT, LIVER, S-9, AROCLOR 1254 (10%), Method: PREINCUBATION active; positive
inactive: Test System: AMES SALMONELLA TYPHIMURIUM, Strain/Indicator: TA98, Metabolic Activation: HAMSTER, LIVER, S-9, AROCLOR 1254 (10%), Method: PREINCUBATION inactive; negative | Test System: AMES SALMONELLA TYPHIMURIUM, Strain/Indicator: TA98, Metabolic Activation: NONE, Method: PREINCUBATION inactive; negative | Test System: AMES SALMONELLA TYPHIMURIUM, Strain/Indicator: TA100, Metabolic Activation: HAMSTER, LIVER, AROCLOR 1254 (10%), Method: PREINCUBATION inactive; negative | Test System: AMES SALMONELLA TYPHIMURIUM, Strain/Indicator: TA1535, Metabolic Activation: HAMSTER, LIVER, S-9, AROCLOR 1254 (10%), Method: PREINCUBATION inactive; negative | [9] inactive; negative | Test System: AMES SALMONELLA TYPHIMURIUM, Strain/Indicator: TA1535, Metabolic Activation: RAT, LIVER, S-9, AROCLOR 1254 (10%), Method: PREINCUBATION inactive; negative | Test System: AMES SALMONELLA TYPHIMURIUM, Strain/Indicator: TA1537, Metabolic Activation: HAMSTER, LIVER, S-9, AROCLOR 1254 (10%), Method: PREINCUBATION inactive; negative | [10] inactive; negative | Test System: AMES SALMONELLA TYPHIMURIUM, Strain/Indicator: TA1537, Metabolic Activation: RAT, LIVER, S-9, AROCLOR 1254 (10%), Method: PREINCUBATION inactive; negative
